“And” between values parts separate entries of the source, which are not always exact repeats. Identical values can stand only once. The source made the active and inactive calls.
What was measured:
[1] = molecular target: T1, Histone-lysine N-methyltransferase NSD2 (Homo sapiens, UniProt O96028); assay type: biochemical
T1 sequence (O96028 whole entry): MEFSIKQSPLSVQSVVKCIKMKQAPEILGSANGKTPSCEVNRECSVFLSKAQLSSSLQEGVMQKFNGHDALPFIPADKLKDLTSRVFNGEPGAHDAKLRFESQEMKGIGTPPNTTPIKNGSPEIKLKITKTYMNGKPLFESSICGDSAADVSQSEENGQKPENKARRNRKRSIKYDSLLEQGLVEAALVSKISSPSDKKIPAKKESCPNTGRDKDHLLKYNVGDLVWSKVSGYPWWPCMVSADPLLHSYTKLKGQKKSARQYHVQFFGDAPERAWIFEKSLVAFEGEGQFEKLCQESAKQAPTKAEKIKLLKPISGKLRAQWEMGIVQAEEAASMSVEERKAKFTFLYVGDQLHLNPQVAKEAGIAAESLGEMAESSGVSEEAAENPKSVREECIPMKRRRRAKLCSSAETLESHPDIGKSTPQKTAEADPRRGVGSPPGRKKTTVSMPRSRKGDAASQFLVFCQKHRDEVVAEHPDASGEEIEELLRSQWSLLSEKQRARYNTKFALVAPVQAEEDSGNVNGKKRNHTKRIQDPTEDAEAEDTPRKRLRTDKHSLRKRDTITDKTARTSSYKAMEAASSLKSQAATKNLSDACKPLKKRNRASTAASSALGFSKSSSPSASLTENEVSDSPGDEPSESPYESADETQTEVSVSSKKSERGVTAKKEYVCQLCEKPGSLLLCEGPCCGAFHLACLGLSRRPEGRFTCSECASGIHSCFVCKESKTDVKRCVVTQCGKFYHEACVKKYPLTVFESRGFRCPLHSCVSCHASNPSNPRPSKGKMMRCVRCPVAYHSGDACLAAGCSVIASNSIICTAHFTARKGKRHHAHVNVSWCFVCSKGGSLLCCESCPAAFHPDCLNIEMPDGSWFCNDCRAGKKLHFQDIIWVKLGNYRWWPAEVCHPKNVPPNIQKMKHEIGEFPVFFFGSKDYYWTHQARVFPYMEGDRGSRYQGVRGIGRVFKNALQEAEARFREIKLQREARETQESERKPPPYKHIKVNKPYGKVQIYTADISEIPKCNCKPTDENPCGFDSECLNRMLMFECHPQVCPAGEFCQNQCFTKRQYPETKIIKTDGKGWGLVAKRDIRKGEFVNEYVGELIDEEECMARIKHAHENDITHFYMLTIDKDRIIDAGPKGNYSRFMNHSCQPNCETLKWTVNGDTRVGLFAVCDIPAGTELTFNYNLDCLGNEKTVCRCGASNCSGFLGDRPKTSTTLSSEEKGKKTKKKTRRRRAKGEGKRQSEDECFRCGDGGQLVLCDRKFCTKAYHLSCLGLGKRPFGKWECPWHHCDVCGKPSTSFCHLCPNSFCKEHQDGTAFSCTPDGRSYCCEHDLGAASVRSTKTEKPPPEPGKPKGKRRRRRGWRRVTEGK

Caspase-3 = molecular target: T2, Caspase-3 (Homo sapiens, UniProt P42574); assay type: functional;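 also: Dose-response selectivity test against caspase-3 for candidate inhibitors of sentrin-specific proteases (SENPs)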
T2 sequence (P42574 whole entry): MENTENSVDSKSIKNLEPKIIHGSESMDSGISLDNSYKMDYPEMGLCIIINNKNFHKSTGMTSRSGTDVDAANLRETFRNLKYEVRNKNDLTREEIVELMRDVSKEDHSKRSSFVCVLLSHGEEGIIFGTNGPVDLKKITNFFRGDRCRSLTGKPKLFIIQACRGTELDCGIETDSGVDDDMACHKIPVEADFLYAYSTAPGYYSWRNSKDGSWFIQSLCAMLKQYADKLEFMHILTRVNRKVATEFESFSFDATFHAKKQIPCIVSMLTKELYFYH

[2] = molecular target: Induced myeloid leukemia cell differentiation protein Mcl-1 (Homo sapiens, UniProt Q07820); assay type: functional
Induced myeloid leukemia cell differentiation protein Mcl-1, sequence (Q07820 whole entry): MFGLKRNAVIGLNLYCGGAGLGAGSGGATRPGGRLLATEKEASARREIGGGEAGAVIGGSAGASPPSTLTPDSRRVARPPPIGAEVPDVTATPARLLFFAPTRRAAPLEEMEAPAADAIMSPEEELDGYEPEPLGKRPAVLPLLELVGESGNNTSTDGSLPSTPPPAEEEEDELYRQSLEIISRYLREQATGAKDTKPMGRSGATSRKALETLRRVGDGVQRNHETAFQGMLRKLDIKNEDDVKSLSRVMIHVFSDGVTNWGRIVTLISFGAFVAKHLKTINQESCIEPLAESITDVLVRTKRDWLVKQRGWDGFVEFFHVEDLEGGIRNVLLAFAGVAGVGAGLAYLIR

[3] = molecular target: T3, Sentrin-specific protease 7 (Homo sapiens, UniProt Q9BQF6); assay type: functional;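 also: Luminescence-based dose-response confirmation of ultra-high-throughput screening hits, measuring inhibition of SENP7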
T3 sequence (Q9BQF6 whole entry): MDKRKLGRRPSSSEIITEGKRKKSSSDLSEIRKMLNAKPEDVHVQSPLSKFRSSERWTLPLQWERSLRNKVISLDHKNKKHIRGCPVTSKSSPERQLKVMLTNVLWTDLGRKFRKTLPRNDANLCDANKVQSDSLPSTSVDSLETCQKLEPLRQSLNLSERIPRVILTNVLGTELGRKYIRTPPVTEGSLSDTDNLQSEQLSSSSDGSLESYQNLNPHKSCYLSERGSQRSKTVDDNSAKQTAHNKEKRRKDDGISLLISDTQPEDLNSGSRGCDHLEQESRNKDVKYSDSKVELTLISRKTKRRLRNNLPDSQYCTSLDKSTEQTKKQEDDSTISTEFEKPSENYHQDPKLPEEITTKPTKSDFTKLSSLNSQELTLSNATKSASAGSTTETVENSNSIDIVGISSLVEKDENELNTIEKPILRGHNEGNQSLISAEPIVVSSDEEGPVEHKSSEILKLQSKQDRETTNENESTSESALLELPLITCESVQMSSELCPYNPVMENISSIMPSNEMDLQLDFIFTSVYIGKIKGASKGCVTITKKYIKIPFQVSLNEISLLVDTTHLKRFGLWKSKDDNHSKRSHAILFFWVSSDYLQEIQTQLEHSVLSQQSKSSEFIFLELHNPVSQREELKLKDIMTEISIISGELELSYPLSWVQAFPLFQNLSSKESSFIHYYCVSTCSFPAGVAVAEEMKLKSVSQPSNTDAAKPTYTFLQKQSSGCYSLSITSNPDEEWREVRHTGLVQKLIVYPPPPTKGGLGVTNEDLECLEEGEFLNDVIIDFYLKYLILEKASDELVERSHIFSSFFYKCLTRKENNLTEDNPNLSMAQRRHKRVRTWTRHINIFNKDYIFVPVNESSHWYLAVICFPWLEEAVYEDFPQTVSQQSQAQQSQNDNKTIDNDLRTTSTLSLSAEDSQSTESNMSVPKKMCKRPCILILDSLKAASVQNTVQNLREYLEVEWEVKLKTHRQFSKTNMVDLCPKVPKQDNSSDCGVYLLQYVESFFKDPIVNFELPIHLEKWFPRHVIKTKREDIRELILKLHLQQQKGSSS

[4] = molecular target: T4, Sentrin-specific protease 8 (Homo sapiens, UniProt Q96LD8); assay type: functional;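 also: luminescence read-out of SENP8 inhibition, dose-response confirmation following an ultra-high-throughput screen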
T4 sequence (Q96LD8 whole entry): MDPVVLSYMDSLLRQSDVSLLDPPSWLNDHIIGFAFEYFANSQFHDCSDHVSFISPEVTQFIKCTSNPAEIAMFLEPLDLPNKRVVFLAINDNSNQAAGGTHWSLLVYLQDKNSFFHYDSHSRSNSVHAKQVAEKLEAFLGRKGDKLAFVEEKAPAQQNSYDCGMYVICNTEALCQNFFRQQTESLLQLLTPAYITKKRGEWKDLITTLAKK

Row | SMILES | AC50 [1] | IC50 (Caspase-3) | IC50 [2] | IC50 [3] | IC50 [4]
1 | CCN1/C(=C/c2ccc3cc(C)ccc3[n+]2CC)Sc2cc(C)c(C)cc21 | 19.5 µM (active) and 8.3 µM (active) | – | – | – | –
2 | COc1ccc(C(=O)Nc2nc3c(s2)Cc2cc(OC)ccc2-3)cc1 | – | 3.45 µM (active) | 3.75 µM (active) | 2.36 µM (active) | 2.29 µM (active)
3 | Cc1oc2c(c1C(=O)c1ccccc1)C(=O)C(=O)c1ccccc1-2 | 14.3 µM (active) | 29.3 µM (active) | – | 9.15 µM (active) | 12.8 µM (active)
4 | O=C1C(Cl)=C(NCCN2CCCCC2)C(=O)c2ccccc21 | 6.54 µM (active) | – | – | – | –
5 | O=C(O)COc1ccc(/C=N/NC(=O)c2ccc(-c3csc(Nc4ccc(Cl)cc4)n3)cc2)cc1 | – | – | 0.886 µM (active) | – | –
6 | COc1cc(NCCCNC(C)C)c2nccc(C)c2c1 | 9.71 µM (active) | – | – | – | –
7 | CC(/C=C1\SC(=S)N(NS(=O)(=O)c2ccccc2)C1=O)=C\c1ccccc1 | 13 µM (active) | 7.87 µM (active) | 20.6 µM (active) | 30.7 µM (active) | 2.86 µM (active)

Source: ChEMBL document CHEMBL1201862, “PubChem BioAssay data set” (2004)
